Article PMC6149849, “Cymantrenyl-Nucleobases: Synthesis, Anticancer, Antitrypanosomal and Antimicrobial Activity Studies” (Molecules : A Journal of Synthetic Chemistry and Natural …, 2017)

Legend:
S. aureus ATCC 25923 = test: Effect on bacterial morphology (SEM) with MIC and MBC; format: cell-based, Staphylococcus aureus
Description: In order to elucidate the bactericidal mechanism of action of cymantrenes, the effect of compound 1 on the morphology of S. aureus ATCC 25923 was exemplary studied by scanning electron microscopy (SEM) (Figure 9).
The effect of compound 1 on bacterial morphology was studied by SEM, as previously described. Briefly, samples of S. aureus ATCC 25923 (10^5 CFU/mL) were centrifuged (600× g, 5 min) and resuspended in growth medium containing compound 1 at concentration of 48 or 64 µg/mL. After incubation for 24 h at 37 °C, the cells were washed twice with PBS (0.1 × PBS), fixed with 2.5% glutaraldehyde (overnight), filtered (0.2 μm, pore size cutoff), and subsequently dehydrated in a series of ethanol washes (30%, 50%, 70%, 80%, 90% and 100%; twice for 15 min). The solvent was then evaporated and the samples were coated with a thin layer of platinum (15 nm). SEM images were recorded using a SEM Inspect F50 (FEI Co., Eindhoven, The Netherlands) at an energy range of 10–15 keV.

[1] = tested on: bloodstream forms of T. brucei clone 427-221a; details: cited from earlier work
[2] = tested on: human myeloid leukemia HL-60 cells; details: cited from earlier work

Row | SMILES | MIC, S. aureus ATCC 25923 (S. aureus ATCC 25923) | minimal bactericidal concentration; MBC, S. aureus ATCC 25923 (S. aureus ATCC 25923) | bacterial morphology by SEM (S. aureus ATCC 25923; 48 µg/mL and 64 µg/mL, 24 h) | MIC and GI50 ratios of cytotoxic to trypanocidal activities ([1]; HL-60 / T. brucei) | Selectivity GI50 Ratio ([1]; HL-60 / T. brucei) | Selectivity MIC Ratio ([1]; HL-60 / T. brucei) | GI50 [1] | T. brucei MIC [1] | GI50 [2] | HL-60 MIC [2]
1 | O=C(CCn1cc(F)c(=O)[nH]c1=O)[C]12[CH]3[CH]4[CH]5[CH]1[Mn]4532.[C-]#[O+].[C-]#[O+].[C-]#[O+] (stereo not shown) [Compound 1] | 32 µg/mL | 128 µg/mL | severe morphological alterations in cell dimensions and structure, as well as the disruption of the outer envelope | – | – | – | – | – | – | –
2 | Nc1ncnc2c1ncn2CCC(O)[C]12[CH]3[CH]4[CH]5[CH]1[Mn]45321[P](c2ccccc2)(c2ccccc2)CC[P]1(c1ccccc1)c1ccccc1.[C-]#[O+] (racemic) [Compound C] | – | – | – | 7–13 | 13.1 | 10 | 1.67 ± 0.37 µM | 10 µM | 21.8 ± 8.6 µM | 100 µM
